# From patent publication US9845322B2 (Hoffmann-La Roche Inc., priority 2016, dated 2017)
# pIC50: −log10 of the molar value. Read-outs that look alike come from different tables or passages of the source.
# Test system: HBsAg secretion in HepG2.2.15 cells
# Test: HBsAg assay (chemiluminescence immunoassay of secreted HBsAg in culture supernatant)
# Assay type: cell-based, HBV
# Summary of the method: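 IC50 taken from dose-response curves as the concentration halving secreted HBsAg relative to DMSO control. Measured by chemiluminescence immunoassay of culture supernatant from constitutively HBV-expressing HepG2.2.15 cells, seeded at 1.5×10^4/well in duplicate and exposed to three-fold serial compound dilutions at 1% final DMSO.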
# [1] = HepG2.2.15 cells, concentration at which HBsAg secretion was reduced by 50% compared to the no drug control, read-out: IC50 (HBsAg assay)
# [2] = Hepatitis B virus, HepG2.2.15, HepG2.2.15 cells, concentration at which HBsAg secretion was reduced by 50% compared to the no drug control, read-out: IC50 (HBsAg assay)
Compound,pIC50 [2],also measured
"CC1c2cnc(-c3ncccn3)nc2CCN1c1cc(OCCCCC(N)=O)cc(F)n1 (single isomer, unassigned; (-)) [Example 158, (−)-5-[[2-fluoro-6-[5-methyl-2-pyrimidin-2-yl-7,8-dihydro-5H-pyrido[4,3-d]pyrimidin-6-yl]-4-pyridyl]oxy]pentanamide]",–,"pIC50 (Hepatitis B virus, HepG2.2.15, read-out: IC50 (HBsAg assay)): 7.80"
"CCC1c2cnc(-c3ccccn3)nc2CCN1c1cc(F)c(F)c(OC)c1 (single isomer, unassigned; (-)) [Example 11, (−)-6-(3,4-difluoro-5-methoxy-phenyl)-5-ethyl-2-(2-pyridyl)-7,8-dihydro-5H-pyrido[4,3-d]pyrimidine]",–,pIC50 [1]: 7.07
"CC(=O)N1CCN(CCCOc2cc(N3CCc4nc(-c5ncccn5)ncc4C3C)cc(F)c2F)CC1 (stereo not shown) [Example 109, 1-[4-[3-[2,3-difluoro-5-(5-methyl-2-pyrimidin-2-yl-7,8-dihydro-5H-pyrido[4,3-d]pyrimidin-6-yl)phenoxy]propyl]piperazin-1-yl]ethanone]",7.10,–
"CC1c2cnc(-c3ncccn3)nc2CCN1c1cc(F)nc(OCC(F)F)c1 (stereo not shown) [Example 150, 6-[2-(2,2-difluoroethoxy)-6-fluoro-4-pyridyl]-5-methyl-2-pyrimidin-2-yl-7,8-dihydro-5H-pyrido[4,3-d]pyrimidine]",7.31,–
"CC1c2cnc(-c3ncccn3)nc2CCN1c1cc(F)c(F)c(OCCC(NC(=O)OC(C)(C)C)C(=O)O)c1 (stereo not shown) [Example 103, 2-(tert-butoxycarbonylamino)-4-[2,3-difluoro-5-(5-methyl-2-pyrimidin-2-yl-7,8-dihydro-5H-pyrido[4,3-d]pyrimidin-6-yl)phenoxy]butanoic acid]",5.66,–
"COc1cc(N2CCc3nc(-c4ccccn4)ncc3C2C[N+](=O)[O-])cc(F)c1F (stereo not shown) [Example 39, 6-(3,4-difluoro-5-methoxy-phenyl)-5-(nitromethyl)-2-(2-pyridyl)-7,8-dihydro-5H-pyrido[4,3-d]pyrimidine]",5.87,–
"CC1c2cnc(-c3ncccn3)nc2CCN1c1cc(F)cc(OCC(F)(F)F)c1 (stereo not shown) [Example 144, 6-[3-fluoro-5-(2,2,2-trifluoroethoxy)phenyl]-5-methyl-2-pyrimidin-2-yl-7,8-dihydro-5H-pyrido[4,3-d]pyrimidine]",7.32,–
"CC1c2cnc(-c3ncccn3)nc2CCN1c1cc(N2CCCC2)cc(F)n1 (stereo not shown) [Example 198, 6-(6-fluoro-4-pyrrolidin-1-yl-2-pyridyl)-5-methyl-2-pyrimidin-2-yl-7,8-dihydro-5H-pyrido[4,3-d]pyrimidine]",–,pIC50 [1]: 8.40
"CC1c2cnc(-c3ncccn3)nc2CCN1c1cc(OCCCCCCCC(N)=O)cc(F)n1 (stereo not shown) [Example 169, 8-[[2-fluoro-6-(5-methyl-2-pyrimidin-2-yl-7,8-dihydro-5H-pyrido[4,3-d]pyrimidin-6-yl)-4-pyridyl]oxy]octanamide]",7.74,–
"CC1c2cnc(-c3ncccn3)nc2CCN1c1cc(N(C)C)cc(F)n1 (stereo not shown) [Example 196, 2-fluoro-N,N-dimethyl-6-(5-methyl-2-pyrimidin-2-yl-7,8-dihydro-5H-pyrido[4,3-d]pyrimidin-6-yl)pyridin-4-amine]",–,pIC50 [1]: 8.70
"COCCS(=O)(=O)NCCCOc1cc(N2CCc3nc(-c4ncccn4)ncc3C2C)cc(F)c1F (stereo not shown) [Example 94, N-[3-[2,3-difluoro-5-(5-methyl-2-pyrimidin-2-yl-7,8-dihydro-5H-pyrido[4,3-d]pyrimidin-6-yl)phenoxy]propyl]-2-methoxy-ethanesulfonamide]",7.15,–
"CCC1c2cnc(-c3ccccn3)nc2CCN1c1cc(F)c(F)c(OC)c1 (stereo not shown) [Example 9, 6-(3,4-difluoro-5-methoxy-phenyl)-5-ethyl-2-(2-pyridyl)-7,8-dihydro-5H-pyrido[4,3-d]pyrimidine]",–,pIC50 [1]: 6.74
"COc1cc(F)nc(N2CCc3nc(-c4ccccn4)ncc3C2C)c1 (stereo not shown) [Example 153, 6-(6-fluoro-4-methoxy-2-pyridyl)-5-methyl-2-(2-pyridyl)-7,8-dihydro-5H-pyrido[4,3-d]pyrimidine]",7.66,–
"COCCOc1cc(N2CCc3nc(-c4ccccn4)ncc3C2C)cc(F)c1F (stereo not shown) [Example 19, 6-[3,4-difluoro-5-(2-methoxyethoxy)phenyl]-5-methyl-2-(2-pyridyl)-7,8-dihydro-5H-pyrido[4,3-d]pyrimidine]",–,pIC50 [1]: 7.38
"CC1c2cnc(-c3ncccn3)nc2CCN1c1cc(OCC2CC2)cc(F)n1 (stereo not shown) [Example 152, 6-[4-(cyclopropylmethoxy)-6-fluoro-2-pyridyl]-5-methyl-2-pyrimidin-2-yl-7,8-dihydro-5H-pyrido[4,3-d]pyrimidine]",7.96,–
"CC1c2cnc(-c3ncccn3)nc2CCN1c1cc(F)cc(N2CCCC2)n1 (stereo not shown) [Example 199, 6-(4-fluoro-6-pyrrolidin-1-yl-2-pyridyl)-5-methyl-2-pyrimidin-2-yl-7,8-dihydro-5H-pyrido[4,3-d]pyrimidine]",7.74,–
"CC1c2cnc(-c3ncccn3)nc2CCN1c1cc(OCCCC(=O)O)cc(F)n1 (single isomer, unassigned; (-)) [Example 184, (−)-4-[[2-fluoro-6-[5-methyl-2-pyrimidin-2-yl-7,8-dihydro-5H-pyrido[4,3-d]pyrimidin-6-yl]-4-pyridyl]oxy]butanoic acid]",6.74,–

Compound,pIC50 [2],also measured
"CC1c2cnc(-c3ncccn3)nc2CCN1c1cc(F)c(F)c(OCC2CCCO2)c1 (stereo not shown) [Example 122, 6-[3,4-difluoro-5-(tetrahydrofuran-2-ylmethoxy)phenyl]-(5R/S)-methyl-2-pyrimidin-2-yl-7,8-dihydro-5H-pyrido[4,3-d]pyrimidine]",–,pIC50 [1]: 7.80
"CC1c2cnc(-c3ccccn3)nc2CCN1c1cc(N2CCCC2)cc(F)n1 (stereo not shown) [Example 224, 6-(6-fluoro-4-pyrrolidin-1-yl-2-pyridyl)-5-methyl-2-(2-pyridyl)-7,8-dihydro-5H-pyrido[4,3-d]pyrimidine]",7.89,–
COc1cc(N2CCc3nc(-c4ccccn4)ncc3C2C2CC2)cc(F)c1F (stereo not shown) [Example 18],6.44,–
"CC1c2cnc(-c3ncccn3)nc2CCN1c1cc(F)c(F)c(OCC2CCOCC2)c1 (stereo not shown) [Example 89, 6-[3,4-difluoro-5-(tetrahydropyran-4-ylmethoxy)phenyl]-5-methyl-2-pyrimidin-2-yl-7,8-dihydro-5H-pyrido[4,3-d]pyrimidine]",7.68,–
"COc1cc(N2CCc3nc(-c4ccccn4)ncc3C2C)cc(F)c1F (stereo not shown) [Example 5, 6-(3,4-difluoro-5-methoxy-phenyl)-5-methyl-2-(2-pyridyl)-7,8-dihydro-5H-pyrido[4,3-d]pyrimidine]",–,pIC50 [1]: 7.42
"CCOC(=O)CCCCCCOc1cc(N2CCc3nc(-c4ncccn4)ncc3C2C)cc(F)c1F (stereo not shown) [Example 85, ethyl 7-[2,3-difluoro-5-(5-methyl-2-pyrimidin-2-yl-7,8-dihydro-5H-pyrido[4,3-d]pyrimidin-6-yl)phenoxy]heptanoate]",6.81,–
"CC1c2cnc(-c3ccccn3)nc2CCN1c1cc(F)c(F)c(OCCS(C)(=O)=O)c1 (stereo not shown) [Example 26, 6-[3,4-difluoro-5-(2-methylsulfonylethoxy)phenyl]-5-methyl-2-(2-pyridyl)-7,8-dihydro-5H-pyrido[4,3-d]pyrimidine]",7.11,–
CC1c2cnc(-c3ccccn3)nc2CCN1c1cc(OCCCOCC(N)=O)cc(F)n1 (stereo not shown) [Example 186],7.74,–
"CC1c2cnc(-c3ncccn3)nc2CCN1c1cc(F)cc(NS(C)(=O)=O)n1 (stereo not shown) [Example 212, N-[4-fluoro-6-(5-methyl-2-pyrimidin-2-yl-7,8-dihydro-5H-pyrido[4,3-d]pyrimidin-6-yl)-2-pyridyl]methanesulfonamide]",6.08,–
"CC1c2cnc(-c3ncccn3)nc2CCN1c1cc(F)cc(OCC2CC2)c1 (stereo not shown) [Example 145, 6-[3-(cyclopropylmethoxy)-5-fluoro-phenyl]-5-methyl-2-pyrimidin-2-yl-7,8-dihydro-5H-pyrido[4,3-d]pyrimidine]",7.85,–
"CC1c2cnc(-c3ccccn3)nc2CCN1c1cc(OCCCCCC(N)=O)cc(F)n1 (stereo not shown) [Example 171, 6-[[2-fluoro-6-[5-methyl-2-(2-pyridyl)-7,8-dihydro-5H-pyrido[4,3-d]pyrimidin-6-yl]-4-pyridyl]oxy]hexanamide]",7.74,–
"CC1c2cnc(-c3ncccn3)nc2CCN1c1cc(F)c(F)c(OCCCS(N)(=O)=O)c1 (stereo not shown) [Example 97, 3-[2,3-difluoro-5-(5-methyl-2-pyrimidin-2-yl-7,8-dihydro-5H-pyrido[4,3-d]pyrimidin-6-yl)phenoxy]propane-1-sulfonamide]",6.81,–
"COC(=O)c1cc(F)cc(N2CCc3nc(-c4ncccn4)ncc3C2C)c1 (stereo not shown) [Example 175, methyl 3-fluoro-5-(5-methyl-2-pyrimidin-2-yl-7,8-dihydro-5H-pyrido[4,3-d]pyrimidin-6-yl)benzoate]",5.83,–
"CC1c2cnc(-c3ncccn3)nc2CCN1c1cc(F)c(F)c(OCC2CSC2)c1 (stereo not shown) [Example 119, 6-[3,4-difluoro-5-(thietan-3-ylmethoxy)phenyl]-5-methyl-2-pyrimidin-2-yl-7,8-dihydro-5H-pyrido[4,3-d]pyrimidine]",7.29,–
"CC1c2cnc(-c3ncccn3)nc2CCN1c1cc(OCC2CCOCC2)cc(F)n1 (stereo not shown) [Example 151, 6-[6-fluoro-4-(tetrahydropyran-4-ylmethoxy)-2-pyridyl]-5-methyl-2-pyrimidin-2-yl-7,8-dihydro-5H-pyrido[4,3-d]pyrimidine]",7.92,–
"CC1c2cnc(-c3ccccn3)nc2CCN1c1cc(N2CCNC(=O)C2)cc(F)n1 (stereo not shown) [Example 222, 4-[2-fluoro-6-[5-methyl-2-(2-pyridyl)-7,8-dihydro-5H-pyrido[4,3-d]pyrimidin-6-yl]-4-pyridyl]piperazin-2-one]",7.80,–
"CC1c2cnc(-c3ncccn3)nc2CCN1c1cc(N(C)C)cc(F)n1 (single isomer, unassigned; (+)) [Example 206, (+)-2-fluoro-N,N-dimethyl-6-[5-methyl-2-pyrimidin-2-yl-7,8-dihydro-5H-pyrido[4,3-d]pyrimidin-6-yl]pyridin-4-amine]",–,pIC50 [1]: 6.55
